Read-outs that look alike come from different tables or passages of the source.
Key:
[1] = tested on: tamoxifen-resistant MCF7 xenografts; assay: Tamoxifen-resistant MCF7 orthotopic xenograft tumor growth inhibition; format: in vivo, Nu/Nu mice
Experimental: Species: Ovariectomized Nu/Nu female mice. Animal handling: Axial mammary fat pad implantation of tamoxifen-resistant tumor fragment (from E45 passage. SC per mouse. Tamoxifen pellet (5 mg, 60-day release) was implanted under the same anesthesia as tumor fragment (pellet—dorsal; tumor—ventral).
Dosing: Oral (gavage), once a day for 28 days (QD×28)
Sampling: Tumors were measured twice weekly. Terminal sacrifice was ˜18 hr after last dose; tumors were harvested, divided, and flash frozen. ERα levels were determined by immunoblotting (see Appendix 1 for details).

[2] = 28-day oral toxicology study in dogs; format: in vivo; conditions: oral once daily 28 days
[3] = Phase I clinical trial pharmacokinetics; conditions: human, in vivo, po, 30 mg, 30 mg oral once daily
From the text: A Phase I Clinical Trial with Compound (I-c) was undertaken. A traditional 3+3 dose escalation design was implemented. […] Dose increases were dependent on toxicities.
The key entry criteria for this trial were: ER+/HER2− advanced breast cancer; at least two prior endocrine therapies in any setting, and a CDK4/6 inhibitor; and up to three prior cytotoxic chemotherapy regimens.
The initial pharmacokinetic results are shown below in Table 2, as well as in FIG. 3 and FIG. 4.

[4] = 28-day oral toxicology study in rats; format: in vivo; conditions: oral once daily 28 days
[5] = tested on: ER-target genes; assay: Expression of ER-target genes (GREB1, PR); format: cell-based; conditions: MCF7 and T47D
[6] = tested on: ESR1 variants Y537S and D538G; assay: In vitro ERα degradation in ESR1 variant cell lines; format: cell-based, human; conditions: FIG. 15
[7] = tested on: T47D ESR1 D538G cells; assay: Live-cell imaging growth studies and EC50 for growth inhibition, T47D ESR1 D538G; format: cell-based; conditions: Homo sapiens; T47D ESR1 D537G (so in the source); read-out: Approximate Half-maximal Effective Concentration (EC50) for growth inhibition
Experimental: MCF7, T47D, T47D ESR1 Y537S or T47D ESR1 D538G cells were seeded at 2×10^5 density per well in 6-well tissue culture-treated plates in DMEM/F12/10% FBS (2 mL total volume). […] The plate was then placed in the Incucyte® S3 Live-Cell Analysis System and images were acquired every 4 hours for a total of 5 days (120 hours). Data were analyzed using the Incucyte® Software v2020C which quantified cell surface area coverage as confluence values. Relative growth was calculated for all timepoints for all growth conditions relative to the confluence value observed for the control at 120 hours. Graphing and statistical analyses were performed using Graphpad Prism (GraphPad Software).

[8] = tested on: MCF7 cells; assay: Luminescence-based MCF7 cell proliferation assay, dose-response matrix; conditions: 5 days (120 hours)
Experimental: MCF7 cells were seeded at a density of 2×10^4 cells in 200 μL of media per well in 2 technical replicate, 96-well black, clear-bottom plates and incubated overnight at 37° C. in a 5% CO2 incubator. […] DMSO was used as the vehicle control. The plates were then incubated for 5 days at 37° C. in a 5% CO2 incubator.
The plates were equilibrated to room temperature for approximately 30 minutes. 50 μL of Cell-Titer Glo (Promega) was added to all wells of the plates, covered with aluminum foil and shaken gently by hand for less than 1 minute. The plates were then incubated for 10 minutes at room temperature. Luminescence was recorded using Envision Multi Label Reader. To assess cell viability, luminescence values for drug-treated wells were normalized to average luminescence of vehicle (DMSO) wells to obtain percent viability relative to control cells. The data were analyzed with the Combenefit software.

[9] = tested on: MCF7 xenograft; assay: MCF7 orthotopic xenograft, combination with mTOR inhibitor everolimus; format: in vivo, NOD/SCID mice
Experimental: NOD/SCID female mice (Charles River, 6-7 weeks old upon arrival) were implanted with 17b-estradiol 0.72 mg 90-day pellets. The next day, each mouse was implanted with 5×10^6 MCF7 cells/[…] per in the axial mammary fat pad. Compound administration was initiated once the tumors reached 175-200 mm^3. Diet was supplemented with peanut butter to help maintain body weights. […] (FIG. 28 and Table 13).
Error bars represent standard deviation.
The ratio of Tween 80 to PEG-400 is 0.02 g Tween 80 to 1 ml PEG-400. PEG-400 is added to a pre-aliquoted volume of Tween 80. • For everolimus: 10% DMSO, 90% (2% Tween 80, PEG 400) (DMSO/PEG/Tween) Sampling: tumors were measured twice weekly. Terminal sacrifice was ˜18 hr after last dose. Tumor volume calculation: Tumor Volume=(width×width×length)/2, where all measurements are in mm and the tumor volume is in mm^3. Tumor Growth Inhibition (TGI) calculation: TGI (%)

[10] = tested on: ER-dependent cell lines; assay: Cell proliferation of ER-dependent cell lines; format: cell-based
[11] = tested on: estrogen receptor; assay: In vitro ER degradation in ER-positive breast cancer cell lines (DC50); conditions: wild-type and variant ERα expressing cell lines
[12] = Compound (I-c) 30 mg/kg oral QD x 28
[13] = Compound (I-c) 30 mg/kg oral QD x 26

## O=C1CC[C@H](N2Cc3cc(N4CCN(CC5CCN(c6ccc([C@@H]7c8ccc(O)cc8CC[C@@H]7c7ccccc7)cc6)CC5)CC4)ccc3C2=O)C(=O)N1 [Compound (I-c), (3S)-3-[5-[4-[[1-[4-[(1R,2S)-6-hydroxy-2-phenyl-tetralin-1-yl]phenyl]-4-piperidyl]methyl]piperazin-1-yl]-1-oxo-isoindolin-2-yl]piperidine-2,6-dione]
[1]; [12]
  Day 28 Tumor volume (mean ± SD): 361 ± 181 mm^3
  TGI (% vehicle): 65 % vehicle
[1]; tamoxifen-resistant MCF7, 30 mg/kg/day oral, 28 days
  tumor growth inhibition (TGI): 65%
[2]; doses up to 90 mg/kg/day
  clinical signs of toxicity: no clinical signs of toxicity
[2]; up to 90 mg/kg/day
  effects on overall animal health or well-being: no effects on the overall animal health or well-being
[3]; Phase I, read-out: Mean Day 1 AUCTAU
  AUC: 1690 ng·h/mL
[3]; Phase I, read-out: Mean Day 1 Cmax
  Cmax: 109 ng/mL
[3]; Phase I, read-out: Mean Day 15 Cmax
  Cmax: 224 ng/mL
[3]; calculated using imputed 24 hour values, read-out: Mean Day 15 AUCTAU
  AUC: 4100 ng·h/mL
[4]; doses up to 100 mg/kg/day
  clinical signs of toxicity: no clinical signs of toxicity
[4]; up to 100 mg/kg/day
  effects on overall animal health or well-being: no effects on the overall animal health or well-being
[5]
  expression of classically-regulated ER-target genes: decreases
[6]
  degradation of clinically-relevant ESR1 variants Y537S and D538G: degrades
[7]
  EC50: 10 nM
[8]
  MCF7 cell proliferation, single agent: dose-dependent decrease
[9]; [13]
  Day 26 Tumor Volume (mean ± SD): 169 ± 77 mm^3
  TGI (% vehicle): 102 % vehicle
[9]; single agent 30 mg/kg oral once daily, 26 days
  tumor growth inhibition (TGI): 102%
[10]
  cell proliferation of ER-dependent cell lines: inhibits
[11]
  ERα degradation potency: single-digit nanomolar
